Source: patent US12590108B2, “Boracic acid compound” (Phaeno Therapeutics Co., Ltd, priority 2020, dated 2026)

Experiments:
[1] = system: Klebsiella pneumoniae ATCC BAA-1705; assay: Mouse thigh muscle infection model, bacterial load; format: in vivo, CD-1 female mice; settings: endpoint 12 h
Experimental: 36 CD-1 female mice were divided into 12 cages with 3 […] in each cage. The day of infection was denoted as day 0.
Immunosuppressant cyclophosphamide at 150 mg/kg was injected intraperitoneally on day −4 and immunosuppressant cyclophosphamide at 100 mg/kg was injected intraperitoneally on day −1 to induce immunodeficient mice.
On day −1, the strain Klebsiella pneumoniae ATCC BAA-1705 was resuscitated on an MHA plate. Resuscitated colonies were picked and dissolved in sterile physiological saline to prepare a bacterial solution with a concentration of 5.6E+07 CFU/mL for thigh muscle infection in mice. The initial time of infection was denoted as 0 h, and 100 μL of the bacterial solution was injected into each mouse at the thigh muscle at 0 h, that is, the inoculation amount was 5.6E+06 CFU/mouse. 2 h after infection, dosing was performed according to the experimental scheme. The specific experimental scheme was as follows (see Table 4): • (1) 2 h after infection: for the 1st cage of mice, at the endpoint, thigh muscle tissue was taken and placed in 10 mL of sterile physiological saline, the tissue was homogenized by a homogenizer, and the homogenate was diluted in a gradient and spotted in a plate, with two replicates for each mouse. • (2) 2 h after infection: the 2nd to 12th cages were respectively treated at 10 mL/kg by volume according to the body weight of the mice, the 2nd cage of mice were given a vehicle by intravenous injection every 2 h, and the endpoint was 12 h; the 3rd cage of mice were given 100 mg/kg of meropenem by intravenous injection every 2 h, and the endpoint was 12 h; the 4th cage of mice were given 100 mg/kg of meropenem and 20 mg/kg of QPX7728 by intravenous injection every 2 h, and the endpoint was 12 h; the 5th cage of mice were given 100 mg/kg of meropenem and 100 mg/kg of compound 15 by intravenous injection every 2 h, and the endpoint was 12 h; the 6th cage of mice were given 100 mg/kg of meropenem and 20 mg/kg of compound 15 by intravenous injection every 2 h, and the endpoint was 12 h; the 7th cage of mice were given 100 mg/kg of meropenem and 4 mg/kg of compound 15 by intravenous injection every 2 h, and the endpoint was 12 h; the 8th cage of mice were given 100 mg/kg of cefepime by intravenous injection every 2 h, and the endpoint was 12 h; the 9th cage of mice were given 100 mg/kg of cefepime and 20 mg/kg of QPX7728 by intravenous injection every 2 h, and the endpoint was 12 h; the 10th cage of mice were given 100 mg/kg of cefepime and 100 mg/kg of compound 15 by intravenous injection every 2 h, and the endpoint was 12 h; the 11th cage of mice were given 100 mg/kg of cefepime and 20 mg/kg of compound 15 by intravenous injection every 2 h, and the endpoint was 12 h; and the 12th cage of mice were given 100 mg/kg of cefepime and 4 mg/kg of compound 15 by intravenous injection every 2 h, and the endpoint was 12 h. At the endpoint of 12 h, thigh muscle tissue was taken and placed in 10 mL of sterile physiological saline, the tissue was homogenized by a homogenizer, and the homogenate was diluted in a gradient and spotted in a plate, with two replicates for each mouse. The bacterial load in the thigh muscle tissue of the mice was counted, and the experiment was summarized as follows (see Table 5): […]

[2] = system: Klebsiella pneumoniae NCTC 13439 (VIM); assay: MIC shift, liquid microdilution, test compound fixed at 8 μg/mL; format: cell-based; settings: NCTC13439, meropenem alone, K. pneumoniae NCTC 13439
Experimental: (§1) Preparation of compound mother plate: On the day of the experiment, the compound to be tested (the final concentration was 0.3125 to 20 μg/mL) and meropenem (the final concentration ranged from 1 to 64 μg/mL) were dissolved in a corresponding solvent (sterile ddH2O or DMSO) to form 100× mother liquors with the highest test concentration, and the compound to be tested and meropenem were then subjected to 2-fold series gradient dilution in a V-bottom 96-well plate to obtain 100× working solutions with the final concentration.
(§2) Preparation of inoculation solution: Fresh bacterial clones were picked from an overnight Mueller Hinton II Agar medium (MHA, Cat. No. 211438, BD BBLTM) plate, suspended in sterilized physiological saline, and adjusted to a concentration of 1×10^8 CFU/mL, and the suspension was further diluted to 5-10^5 CFU/mL with Cation-Adjusted Mueller Hinton II Broth (MHB, Catalog #212332, BD BBLTM).
(§3) Detection of minimum inhibitory concentration (MIC): 1 μL of the compound to be tested and the meropenem working solution were transferred to the corresponding wells to be tested in a round-bottomed 96-well plate (Catalog #3788, Corning), and 98 μL of the inoculation solution was added to the round-bottomed 96-well plate containing drugs, which was an MIC test plate; and after the plate was inverted and cultured at 37° C. for 20-24 h, the MIC value was read, and the minimum inhibitory concentration for inhibiting bacterial growth was defined as MIC.
(§4) The test compound was tested for minimum inhibitory concentration against 5 strains of Klebsiella pneumoniae ATCC BAA-1705 (KPC-2), ATCC BAA-2470 (NDM-1), ARLG-1196 (CTM-1 group, SHA NDM, TEM), NCTC 13440 (VIM-1), and NCTC 13439 (VIM), and one strain of Escherichia coli ARLG-2829 (NDM-5, OXA-1). According to the requirements of the Institute of Clinical And Laboratory Standard (CLSI), the minimum inhibitory concentration (MIC) of each drug combination was determined by liquid microdilution method under the premise of fixing the concentration of the compound to be tested at 8 μg/mL. The test method was the same as above, and the concentration of meropenem ranged from 0.125 to 8 μg/mL.

[3] = system: Klebsiella pneumoniae ATCC BAA-1705 (KPC-2); assay: as above; format: cell-based; settings: ATCCBAA1705, meropenem alone, K. pneumoniae ATCC BAA-1705
Experimental: as §1, §2, §3, §4

[4] = system: Klebsiella pneumoniae ARLG-1196 (CTM-1 group, SHA NDM, TEM); assay: as above; format: cell-based; settings: meropenem alone, K. pneumoniae ARLG-1196
Experimental: as §1, §2, §3, §4

[5] = system: Klebsiella pneumoniae ATCC BAA-2470 (NDM-1); assay: as above; format: cell-based; settings: ATCCBAA2470
Experimental: as §1, §2, §3, §4

[6] = system: Klebsiella pneumoniae NCTC 13440 (VIM-1); assay: as above; format: cell-based; settings: NCTC13440, meropenem alone, K. pneumoniae NCTC 13440
Experimental: as §1, §2, §3, §4

[7] = system: Escherichia coli ARLG-2829 (NDM-5, OXA-1); assay: as above; format: cell-based
Experimental: as §1, §2, §3, §4

| Compound | Average CFU in mice (thigh muscle tissue) ([1]; cefepime 100 mg/kg + inhibitor 4 mg/kg i.v. q2h) [CFU/mouse] | Average CFU in mice (thigh muscle tissue) ([1]; cefepime 100 mg/kg + inhibitor 20 mg/kg i.v. q2h) [CFU/mouse] | Average CFU in mice (thigh muscle tissue) ([1]; cefepime 100 mg/kg + inhibitor 100 mg/kg i.v. q2h) [CFU/mouse] | Average CFU in mice (thigh muscle tissue) ([1]; meropenem 100 mg/kg + inhibitor 4 mg/kg i.v. q2h) [CFU/mouse] | Average CFU in mice (thigh muscle tissue) ([1]; meropenem 100 mg/kg + inhibitor 20 mg/kg i.v. q2h) [CFU/mouse] | Average CFU in mice (thigh muscle tissue) ([1]; meropenem 100 mg/kg + inhibitor 100 mg/kg i.v. q2h) [CFU/mouse] | Average CFU in mice (thigh muscle tissue) ([1]; antibiotic alone 100 mg/kg i.v. q2h) [CFU/mouse] | MIC [2] [µg/mL] | MIC [3] [µg/mL] | MIC [4] [µg/mL] | MIC [5] [µg/mL] | MIC [6] [µg/mL] | MIC [7] [µg/mL] |
| --- | --- | --- | --- | --- | --- | --- | --- | --- | --- | --- | --- | --- | --- |
| CCOc1ccc2c(c1C(=O)O)O[B-](O)(O)CO2 [Compound 15] | 5.68E+06 | 2.06E+06 | 1.24E+06 | 1.65E+07 | 4.08E+06 | 2.02E+06 | – | – | – | – | – | – | – |
| C[C@@H](O)[C@H]1C(=O)N2C(C(=O)O)=C(S[C@@H]3CN[C@H](C(=O)N(C)C)C3)[C@H](C)[C@H]12 [Meropenem, meropenem, reference compound] | – | – | – | – | – | – | 4.83E+08 | 4 | 32 | 64 | 128 | 16 | 128 |
